The text below walks through data of patent publication US10245275B2 (ViiV HEALTHCARE UK (NO.4) LIMITED, priority 2014, dated 2019).

Where two headings read alike, the source gives them in different places.

Test [1] concerns HIV-1 92UG029 (clade A virus). The test can be described thus: HIV cell culture assay, 92UG029 Gag/Pr recombinant virus in MT-2 cells. The format is cell-based. As for the experimental part:
MT-2 cells and 293T cells were obtained from the NIH AIDS Research and Reference Reagent Program. MT-2 cells were propagated in RPMI 1640 media supplemented with 10% heat-inactivated fetal bovine serum, […]. The 293T cells were propagated in DMEM media supplemented with 10% heat-inactivated fetal bovine serum (FBS), 100 units/mL penicillin G and 100 μg/mL streptomycin. The proviral DNA clone of NL4-3 was obtained from the NIH AIDS Research and Reference Reagent Program. A recombinant NL4-3 virus, in which a section of the nef gene from NL4-3 was replaced with the Renilla luciferase gene, was used as a reference virus. In addition, residue Gag P373 was converted to P373S. Briefly, the recombinant virus was prepared by transfection of the altered proviral clone of NL4-3. Transfections were performed in 293T cells using LipofectAMINE PLUS from Invitrogen (Carlsbad, Calif.), according to manufacturer's instruction. The virus was titered in MT-2 cells using luciferase enzyme activity as a marker. Luciferase was quantitated using the Dual Luciferase kit from Promega (Madison, Wis.), with modifications to the manufacturer's protocol. The diluted Passive Lysis solution was pre-mixed with the re-suspended Luciferase Assay Reagent and the re-suspended Stop & Glo Substrate (2:1:1 ratio). Fifty (50) μL of the mixture was added to each aspirated well on assay plates and luciferase activity was measured immediately on a Wallac TriLux (Perkin-Elmer). Antiviral activities of inhibitors toward the recombinant virus were quantified by measuring luciferase activity in cells infected for 4-5 days with NLRluc recombinants in the presence serial dilutions of the inhibitor.
Determination of EC50 for WT, EC50 for A364V, and EC50 for 92UG029 viruses:
HIV-1 92UG029 was obtained from the NIH (Catalog Number: 1650). This is a subtype A Gag and subtype A Env, X4 (SI) virus from Uganda. Reference: WHO Network for HIV Isolation and Characterization. AIDS Res Hum Retroviruses 10:1359, 1994. The Gag/Pr region from 92UG029 was used to replace that in an HIV-1 NL4-3 virus expressing Renilla luciferase gene.
Both recombinant viruses were used as described above in the HIV cell culture assay for the NL4-3 virus.

Test [2] concerns WT (wild-type HIV virus; recombinant NL4-3 virus). The test can be described thus: microbe, parasite or virus in culture. In kind it is cell-based, HIV-1. In outline:
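MT-2 cells infected 4-5 days with NL4-3 carrying Renilla luciferase in place of part of nef (Gag P373S), virus made by 293T transfection, with serial inhibitor dilutions. Antiviral activity read as luciferase activity by a modified dual-luciferase read-out.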

For test [3], the system named is HIV-1 NL4-3 gag A364V virus. Description: microbe, parasite or virus in culture. In kind it is cell-based. The procedure, abridged:
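Recombinant NL4-3 reporter virus with Renilla luciferase replacing part of nef, made by transfection of 293T cells. MT-2 cells infected for 4-5 days with serial inhibitor dilutions; antiviral activity quantified by luciferase activity.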

Where [4] appears, read: Human immunodeficiency virus 1, MT2, read-out: 92UG029A Clade T332S/V362I/V370A (EC50, uM).
The mark [5] stands for this setting: Human immunodeficiency virus 1, NL43, MT2, read-out: WT (EC50, uM), Table 1 regular screen, MT-2 cells, luciferase readout.
The mark [6] stands for this setting: Human immunodeficiency virus 1, NL43, MT2, read-out: A364V (EC50, uM), Table 1 regular screen, MT-2 cells, luciferase readout.
The mark [7] stands for this setting: Human immunodeficiency virus 1, NL43, MT2, read-out: WT (EC50, uM), Table 1 regular screen, class symbol.
[8] abbreviates: Human immunodeficiency virus 1, NL43, MT2, read-out: A364V (EC50, uM), Table 1 regular screen, class symbol.

Turning to `C=C(C)[C@@H]1CC[C@]2(NCCN3CCC(S(C)(=O)=O)CC3)CC[C@]3(C)[C@H](CC[C@@H]4[C@@]5(C)CC=C(C6=CCC(CF)(C(=O)O)CC6)C(C)(C)[C@@H]5CC[C@]43C)[C@@H]12` (mixture of isomers) [Example 1, 1-(fluoromethyl)-4-((1R,3aS,5aR,5bR,7aR,11aS,11bR,13aR,13bR)-5a,5b,8,8,11a-pentamethyl-3a-((2-(4-(methylsulfonyl)piperidin-1-yl)ethyl)amino)-1-(prop-1-en-2-yl)-2,3,3a,4,5,5a,5b,6,7,7a,8,11,11a,11b,12,13,13a,13b-octadecahydro-1H-cyclopenta[a]chrysen-9-yl)cyclohex-3-enecarboxylic acid], the values for the EC50 in test [1] (setting [4]), in test [2] (setting [5]) and in test [3] (setting [6]) were 0.00293 µM, 0.00175 µM and 0.123 µM, respectively.
In the case of `C=C(C)[C@@H]1CC[C@]2(NCCN3CCC(S(C)(=O)=O)CC3)CC[C@]3(C)[C@H](CC[C@@H]4[C@@]5(C)CC=C(C6=CCC(F)(C(=O)O)CC6)C(C)(C)[C@@H]5CC[C@]43C)[C@@H]12` (stereo partly shown) [Compound A, reference compound], the EC50 amounted to 0.61 µM in test [1] (Human immunodeficiency virus 1, MT2, read-out: EC50 92UG029 (μM)); 0.004 µM in test [2] (Human immunodeficiency virus 1, NL43, MT2, read-out: EC50 WT (μM), Table 2, 3× higher viral input); 1.5 µM in test [3] (Human immunodeficiency virus 1, NL43, MT2, read-out: EC50 A364V (μM), Table 2, 3× higher viral input). In test [1] (relative to Compound 2), the “fold less potent than Compound 2 vs 92UG029” value is recorded as above 100 fold. In test [2] (comparative data), the “potency vs. WT (in words)” value is “good potency”. In test [3] (relative to Compound 2), the “fold less potent than Compound 2 vs A364V” value was “about 7 fold”.
For the molecule `C=C(C)[C@@H]1CC[C@]2(NCCN3CCC(S(C)(=O)=O)CC3)CC[C@]3(C)[C@H](CC[C@@H]4[C@@]5(C)CC=C(C6=CC[C@](CF)(C(=O)O)CC6)C(C)(C)[C@@H]5CC[C@]43C)[C@@H]12` [Example 1a, (S)-1-(fluoromethyl)-4-((1R,3aS,5aR,5bR,7aR,11aS,11bR,13aR,13bR)-5a,5b,8,8,11a-pentamethyl-3a-((2-(4-(methylsulfonyl)piperidin-1-yl)ethyl)amino)-1-(prop-1-en-2-yl)-2,3,3a,4,5,5a,5b,6,7,7a,8,11,11a,11b,12,13,13a,13b-octadecahydro-1H-cyclopenta[a]chrysen-9-yl)cyclohex-3-enecarboxylic acid], the values for the EC50 in test [1] (setting [4]), in test [2] (setting [5]) and in test [3] (setting [6]) were 0.00532 µM, 0.00225 µM and 0.109 µM, respectively.
In the same order, the values of `C=C(C)[C@@H]1CC[C@]2(NCCN3CCC(S(C)(=O)=O)CC3)CC[C@]3(C)[C@H](CC[C@@H]4[C@@]5(C)CC=C(C6=CC[C@@](CF)(C(=O)O)CC6)C(C)(C)[C@@H]5CC[C@]43C)[C@@H]12` [Example 1b, (R)-1-(fluoromethyl)-4-((1R,3aS,5aR,5bR,7aR,11aS,11bR,13aR,13bR)-5a,5b, 8,8,11a-pentamethyl-3a-((2-(4-(methylsulfonyl)piperidin-1-yl)ethyl)amino)-1-(prop-1-en-2-yl)-2,3,3a,4,5,5a,5b,6,7,7a,8,11,11a,11 b,12,13,13a,13b-octadecahydro-1H-cyclopenta[a]chrysen-9-yl)cyclohex-3-enecarboxylic acid] are 0.00348 µM, 0.00193 µM and 0.176 µM.
On to `C=C(C)[C@@H]1CC[C@]2(NCCC3(O)COC3)CC[C@]3(C)[C@H](CC[C@@H]4[C@@]5(C)CC=C(C6=CC[C@@](CF)(C(=O)O)CC6)C(C)(C)[C@@H]5CC[C@]43C)[C@@H]12` [Example 2-11, (R)-1-(fluoromethyl)-4-((1R,3aS,5aR,5bR,7aR,11aS,11bR,13aR,13bR)-3a-((2-(3-hydroxyoxetan-3-yl)ethyl)amino)-5a,5b, 8,8,11a-pentamethyl-1-(prop-1-en-2-yl)-2,3,3a,4,5,5a,5b,6,7,7a,8,11,11a,11b,12,13,13a,13b-octadecahydro-1H-cyclopenta[a]chrysen-9-yl)cyclohex-3-enecarboxylic acid], for which the EC50 in test [1] (setting [4]) is 0.0153 µM; in test [2] (setting [7]), below 0.05 µM; in test [3] (setting [8]) it was above 0.05 µM.
For `C=C(C)[C@@H]1CC[C@]2(NCC[C@]3(O)CC[C@](C)(O)CC3)CC[C@]3(C)[C@H](CC[C@@H]4[C@@]5(C)CC=C(C6=CC[C@@](CF)(C(=O)O)CC6)C(C)(C)[C@@H]5CC[C@]43C)[C@@H]12` [Example 2-17, (R)-4-((1R,3aS,5aR,5bR,7aR,11aS,11bR,13aR,13bR)-3a-((2-((trans)-1,4-dihydroxy-4-methylcyclohexyl)ethyl)amino)-5a,5b,8,8,11a-pentamethyl-1-(prop-1-en-2-yl)-2,3,3a,4,5,5a,5b,6,7,7a,8,11,11a,11b,12,13,13a,13b-octadecahydro-1H-cyclopenta[a]chrysen-9-yl)-1-(fluoromethyl)cyclohex-3-enecarboxylic acid], in that order: 0.00937 µM, below 0.05 µM and below 0.05 µM.
Turning to `C=C(C)[C@@H]1CC[C@]2(NCC[C@]3(O)CC[C@@H](S(C)(=O)=O)CC3)CC[C@]3(C)[C@H](CC[C@@H]4[C@@]5(C)CC=C(C6=CC[C@@](CF)(C(=O)O)CC6)C(C)(C)[C@@H]5CC[C@]43C)[C@@H]12` [Example 2-20, (R)-1-(fluoromethyl)-4-((1R,3aS,5aR,5bR,7aR,11aS,11bR,13aR,13bR)-3a-((2-((cis)-1-hydroxy-4-(methylsulfonyl)cyclohexyl)ethyl)amino)-5a,5b,8,8,11a-pentamethyl-1-(prop-1-en-2-yl)-2,3,3a,4,5,5a,5b,6,7,7a,8,11,11a,11 b,12,13,13a,13b-octadecahydro-1H-cyclopenta[a]chrysen-9-yl)cyclohex-3-enecarboxylic acid], the figures for the EC50 in test [1] (setting [4]), in test [2] (setting [7]) and in test [3] (setting [8]) were below 0.05 µM, below 0.05 µM and above 0.05 µM, respectively.
On to `C=C(C)[C@@H]1CC[C@]2(C(=O)NCCN3CCS(=O)(=O)CC3)CC[C@]3(C)[C@H](CC[C@@H]4[C@@]5(C)CC=C(C6=CC[C@@](CF)(C(=O)O)CC6)C(C)(C)[C@@H]5CC[C@]43C)[C@@H]12` [Example 38, (R)-4-((1R,3aS,5aR,5bR,7aR,11aS,11bR,13aR,13bR)-3a-((2-(1,1-dioxidothiomorpholino)ethyl)carbamoyl)-5a,5b,8,8,11a-pentamethyl-1-(prop-1-en-2-yl)-2,3,3a,4,5,5a,5b,6,7,7a,8,11,11a,11b,12,13,13a,13b-octadecahydro-1H-cyclopenta[a]chrysen-9-yl)-1-(fluoromethyl)cyclohex-3-enecarboxylic acid], for which the EC50 in test [2] (setting [7]) and in test [3] (setting [8]) was below 0.05 µM throughout.
As to `C=C(C)[C@@H]1CC[C@]2(NCCS(=O)(=O)CCN3CCS(=O)(=O)CC3)CC[C@]3(C)[C@H](CC[C@@H]4[C@@]5(C)CC=C(C6=CC[C@](CF)(C(=O)O)CC6)C(C)(C)[C@@H]5CC[C@]43C)[C@@H]12` [Example 43, (S)-4-((1R,3aS,5aR,5bR,7aR,11aS,11bR,13aR,13bR)-3a-((2-((2-(1,1-dioxidothiomorpholino)ethyl)sulfonyl)ethyl)amino)-5a,5b,8,8,11a-pentamethyl-1-(prop-1-en-2-yl)-2,3,3a,4,5,5a,5b,6,7,7a,8,11,11a,11b,12,13,13a,13b-octadecahydro-1H-cyclopenta[a]chrysen-9-yl)-1-(fluoromethyl)cyclohex-3-enecarboxylic acid], the EC50 in test [2] (setting [5]) came out at 0.00335 µM; in test [3] (setting [6]), 0.585 µM.
